Source: patent publication US9079895B2, “Morpholino compounds, uses and methods” (University of Dundee, priority 2012, dated 2015)
“And” between values parts separate entries of the source, which are not always exact repeats. Identical values can stand only once. Like-named read-outs stand apart in the source and are kept apart here.

Key:
5HT7 receptor = 5HT7 receptor (Homo sapiens (Human), UniProt P34969); test: Secondary radioligand binding assay, 5HT7; parameters: key to Ki 5HT7: “—” indicates that a binding interaction was not detected; settings: average of at least two experiments;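 note: competition of test compound with radioligand for binding to membranes from transfected cell lines, 1.5 h incubation at room temperature, filter-bound radioactivity read by liquid scintillation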
Chain of 5HT7 receptor (P34969 whole entry): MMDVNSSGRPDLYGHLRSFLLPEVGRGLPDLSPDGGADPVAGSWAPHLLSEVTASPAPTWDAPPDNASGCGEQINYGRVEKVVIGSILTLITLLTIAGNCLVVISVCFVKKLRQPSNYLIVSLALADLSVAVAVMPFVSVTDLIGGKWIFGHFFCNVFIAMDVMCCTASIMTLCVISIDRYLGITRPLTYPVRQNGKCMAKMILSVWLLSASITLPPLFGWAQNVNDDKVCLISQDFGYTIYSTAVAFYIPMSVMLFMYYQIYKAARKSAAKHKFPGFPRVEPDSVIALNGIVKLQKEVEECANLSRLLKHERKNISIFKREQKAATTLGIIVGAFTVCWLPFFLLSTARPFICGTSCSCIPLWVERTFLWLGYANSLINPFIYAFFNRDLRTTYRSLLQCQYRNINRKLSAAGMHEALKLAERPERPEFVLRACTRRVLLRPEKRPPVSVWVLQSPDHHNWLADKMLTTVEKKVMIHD
Protocol: (§8) Assay Buffer: Standard Binding Buffer (50 mM Tris-HCl, 10 mM MgCl2, 1 mM EDTA, pH 7.4)
(§9) Membrane Fraction Source: Transiently or stably transfected cell lines (e.g., HEK293, COS, CHO, NIH3T3)

5HT2a receptor = 5HT2a receptor (Homo sapiens (Human), UniProt P28223); test: Secondary radioligand binding assay, 5HT2a; settings: average of at least two experiments
Chain of 5HT2a receptor (P28223 whole entry): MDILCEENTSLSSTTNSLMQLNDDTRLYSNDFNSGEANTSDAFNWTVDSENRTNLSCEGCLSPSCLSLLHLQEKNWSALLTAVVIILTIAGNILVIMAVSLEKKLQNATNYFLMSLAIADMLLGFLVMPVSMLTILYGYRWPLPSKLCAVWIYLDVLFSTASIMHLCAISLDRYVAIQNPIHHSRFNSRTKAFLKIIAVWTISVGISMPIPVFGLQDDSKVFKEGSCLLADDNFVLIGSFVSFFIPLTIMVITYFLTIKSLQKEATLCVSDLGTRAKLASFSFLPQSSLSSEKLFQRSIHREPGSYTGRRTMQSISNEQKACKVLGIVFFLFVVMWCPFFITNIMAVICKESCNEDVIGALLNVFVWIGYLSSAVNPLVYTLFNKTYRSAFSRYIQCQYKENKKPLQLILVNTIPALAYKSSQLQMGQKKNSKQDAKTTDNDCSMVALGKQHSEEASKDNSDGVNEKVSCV
Protocol: as §8, §9

5HT6 receptor = 5HT6 receptor (Homo sapiens (Human), UniProt P50406); test: Secondary radioligand binding assay, 5HT6; parameters: key: “—” indicates that a binding interaction was not detected; settings: average of at least two experiments;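 note: competition displacement of radioligand from membranes of transfected cell lines expressing the receptor, 1.5 h at room temperature, bound radioactivity counted by scintillation after filtration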
Chain of 5HT6 receptor (P50406 whole entry): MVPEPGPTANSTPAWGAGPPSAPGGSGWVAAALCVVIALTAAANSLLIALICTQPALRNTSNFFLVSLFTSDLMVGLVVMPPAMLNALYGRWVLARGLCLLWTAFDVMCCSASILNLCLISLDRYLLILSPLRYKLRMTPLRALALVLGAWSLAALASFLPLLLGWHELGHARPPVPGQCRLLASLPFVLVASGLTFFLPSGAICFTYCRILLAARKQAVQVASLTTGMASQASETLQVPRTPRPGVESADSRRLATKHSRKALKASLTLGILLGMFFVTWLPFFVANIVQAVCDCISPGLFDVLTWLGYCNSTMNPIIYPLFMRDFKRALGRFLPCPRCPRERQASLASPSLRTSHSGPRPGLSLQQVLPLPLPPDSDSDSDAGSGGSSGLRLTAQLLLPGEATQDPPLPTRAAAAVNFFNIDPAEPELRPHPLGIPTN
Protocol: as §8, §9

dopamine D5 receptor = dopamine D5 receptor (Homo sapiens (Human), UniProt P21918); test: Secondary radioligand binding assay, D5; parameters: key to Ki D5: “—” indicates that a binding interaction was not detected; settings: average of at least two experiments
Chain of dopamine D5 receptor (P21918 whole entry): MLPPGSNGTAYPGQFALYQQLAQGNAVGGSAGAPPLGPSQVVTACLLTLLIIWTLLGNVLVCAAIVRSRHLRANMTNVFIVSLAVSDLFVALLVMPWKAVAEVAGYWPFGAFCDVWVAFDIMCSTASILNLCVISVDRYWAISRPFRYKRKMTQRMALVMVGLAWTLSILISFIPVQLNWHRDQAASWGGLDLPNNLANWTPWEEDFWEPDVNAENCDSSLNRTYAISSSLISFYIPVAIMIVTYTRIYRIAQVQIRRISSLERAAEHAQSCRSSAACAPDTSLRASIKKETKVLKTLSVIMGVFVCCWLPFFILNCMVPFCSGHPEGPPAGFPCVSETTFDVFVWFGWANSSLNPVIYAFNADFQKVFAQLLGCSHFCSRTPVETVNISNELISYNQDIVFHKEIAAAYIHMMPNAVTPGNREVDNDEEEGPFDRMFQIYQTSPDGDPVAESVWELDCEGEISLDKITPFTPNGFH
Protocol: (§1) 1. Secondary Radioligand Binding Assays
(§2) The detailed experimental protocols for the radioligand and functional receptor assays are available on the NIMH PDSP website at http://pdsp.med.unc.edu/UNC-CH %20Protocol %20Book.pdf.
(§3) Radioligand is diluted to five times the assay concentration (see Table 18) in Standard Binding Buffer. Typically, the assay concentration of radioligand is a value between one half the KD and the KD of a particular radioligand at its target. 50 μl aliquots of radioligand are dispensed into the wells of a 96-well plate containing 100 μl of Standard Binding Buffer. Then, duplicate 50 μl aliquots of the test and reference compound dilutions are added.
(§4) The 250 μl reactions are incubated at room temperature and shielded from light (to prevent photolysis of light-sensitive ligands) for 1.5 hours, then harvested by rapid filtration onto Whatman GF/B glass fiber filters pre-soaked with 0.3% polyethyleneimine using a 96-well Brandel harverster. Four rapid 500 μl washes are performed with chilled Standard Binding Buffer to reduce non-specific binding. Filters are placed in 6 ml scintillation tubes and allowed to dry overnight. The next day, 4 ml of EcoScint scintillation cocktail (National Diagnostics) are added to each tube. The tubes are capped, labeled, and counted by liquid scintillation counting. […] The filter mats are dried, then scintillant is melted onto the filters and the radioactivity retained on the filters is counted in a Microbeta scintillation counter.
(§5) Raw data (dpm) representing total radioligand binding (i.e. specific+non-specific binding) are plotted as a function of the logarithm of the molar concentration of the competitor (i.e. test or reference compound).
(§6) B. Dopamine Receptors: D1, D2, D3, D4, D5 Assay Buffers: Dopamine Binding Buffer (50 mM NaCl, 50 mM HEPES-HCl, 5 mM MgCl2, 0.5 mM EDTA, pH 7.4) Membrane Fraction Source: Transiently or stably transfected cell lines (e.g. HEK293, COS, CHO, NIH3T3)
(§7) The method is carried out in the manner described for the serotonin receptor assay above. Eleven dilutions (5× assay concentration) of the test and reference (see Table 19) compounds are prepared in Dopamine Binding Buffer by serial dilution, as previously described. Radioligand is diluted to five times the assay concentration (see Table 20) in Dopamine Binding Buffer.

[1] = molecular target: Alpha1B adrenergic receptor (Homo sapiens (Human), UniProt P35368); test: Secondary radioligand binding assay, Alpha1B; parameters: key to Ki Alpha1B: “—” indicates that a binding interaction was not detected; settings: average of at least two experiments
Chain of Alpha1B adrenergic receptor (P35368 whole entry): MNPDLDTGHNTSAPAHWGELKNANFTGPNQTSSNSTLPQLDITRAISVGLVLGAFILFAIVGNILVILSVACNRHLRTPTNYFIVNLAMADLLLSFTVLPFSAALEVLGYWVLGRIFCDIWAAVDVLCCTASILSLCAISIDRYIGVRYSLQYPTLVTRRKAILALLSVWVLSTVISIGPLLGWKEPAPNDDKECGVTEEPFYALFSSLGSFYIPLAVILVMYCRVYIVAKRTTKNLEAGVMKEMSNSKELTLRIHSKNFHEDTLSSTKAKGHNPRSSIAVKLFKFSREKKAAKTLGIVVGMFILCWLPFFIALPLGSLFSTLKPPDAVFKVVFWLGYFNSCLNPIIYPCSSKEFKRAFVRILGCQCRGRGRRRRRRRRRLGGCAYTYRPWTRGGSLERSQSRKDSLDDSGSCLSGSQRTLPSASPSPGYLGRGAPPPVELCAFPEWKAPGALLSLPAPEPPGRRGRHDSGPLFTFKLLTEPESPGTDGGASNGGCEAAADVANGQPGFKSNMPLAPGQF
From the text: 1. Secondary Radioligand Binding Assays The detailed experimental protocols for the radioligand and functional receptor assays are available on the NIMH PDSP website at http://pdsp.med.unc.edu/UNC-CH %20Protocol %20Book.pdf. Raw data (dpm) representing total radioligand binding (i.e. specific+non-specific binding) are plotted as a function of the logarithm of the molar concentration of the competitor (i.e. test or reference compound). […] C. Adrenergic Receptors: α1A, α1B, α2A, α2B, α2C, β1, β2, β3 Assay Buffers: For α1 receptors, α1 Binding Buffer (20 mM Tris-HCl, 145 mM NaCl, pH 7.4); for α2 receptors, α2 Binding Buffer (50 mM Tris-HCl, 5 mM MgCl2, pH 7.7); for β receptors, β Binding Buffer (50 mM Tris-HCl, 3 mM MnCl2, pH 7.7) Membrane Fraction Source: Transiently or stably transfected cell lines (e.g. HEK293, COS, CHO, NIH3T3) Protocol adapted from Arango et al. […] (1990), Gen. Psychiatry, 47: 1038-1047. The method is carried out in the manner described for the serotonin receptor assay above, except where described below. Eleven dilutions (5× assay concentration) of the test and reference (see Table 20) compounds are prepared in the appropriate buffer by serial dilution, as previously described. Radioligand is diluted to five times the assay concentration (see Table 21) in the appropriate buffer. […] Four rapid 500-μl washes are performed with chilled distilled water (for α1 and β receptors) or 0.1% polyethyleneimine (for α2 receptors) to reduce non-specific binding. Filters are placed in 6 ml scintillation tubes and allowed to dry overnight and the samples are treated to obtain data as described above. [table]

5HT2b receptor = 5HT2b receptor (Homo sapiens (Human), UniProt P41595); test: Secondary radioligand binding assay, 5HT2b; parameters: key to Ki 5HT2b: “—” indicates that a binding interaction was not detected; settings: average of at least two experiments;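 note: competition binding against a radioligand on membranes from transfected cell lines, 1.5 h incubation at room temperature, filter-retained radioactivity counted by liquid scintillation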
5HT1d receptor = 5HT1d receptor (Homo sapiens (Human), UniProt P28221); test: Secondary radioligand binding assay, 5HT1d; parameters: key to Ki 5HT1d: “—” indicates that a binding interaction was not detected; settings: average of at least two experiments;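 note: competition binding against a radioligand on membranes from transfected cell lines, 1.5 h at room temperature, filter-retained radioactivity counted by liquid scintillation, total binding plotted versus log competitor concentration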
Chain of 5HT1d receptor (P28221 whole entry): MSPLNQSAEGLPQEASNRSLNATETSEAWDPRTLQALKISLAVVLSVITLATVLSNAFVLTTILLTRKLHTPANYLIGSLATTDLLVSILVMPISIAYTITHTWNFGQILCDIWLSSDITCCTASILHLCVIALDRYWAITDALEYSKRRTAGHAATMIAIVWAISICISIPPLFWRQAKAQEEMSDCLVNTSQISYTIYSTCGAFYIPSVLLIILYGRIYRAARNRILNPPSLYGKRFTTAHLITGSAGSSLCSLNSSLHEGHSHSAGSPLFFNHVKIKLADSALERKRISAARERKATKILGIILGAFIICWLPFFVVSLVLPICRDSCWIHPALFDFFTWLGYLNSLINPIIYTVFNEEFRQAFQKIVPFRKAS
Protocol: as §8, §9

5HT1a receptor = 5HT1a receptor (Homo sapiens (Human), UniProt P08908); test: Secondary radioligand binding assay, 5HT1a; settings: average of at least two experiments
Chain of 5HT1a receptor (P08908 whole entry): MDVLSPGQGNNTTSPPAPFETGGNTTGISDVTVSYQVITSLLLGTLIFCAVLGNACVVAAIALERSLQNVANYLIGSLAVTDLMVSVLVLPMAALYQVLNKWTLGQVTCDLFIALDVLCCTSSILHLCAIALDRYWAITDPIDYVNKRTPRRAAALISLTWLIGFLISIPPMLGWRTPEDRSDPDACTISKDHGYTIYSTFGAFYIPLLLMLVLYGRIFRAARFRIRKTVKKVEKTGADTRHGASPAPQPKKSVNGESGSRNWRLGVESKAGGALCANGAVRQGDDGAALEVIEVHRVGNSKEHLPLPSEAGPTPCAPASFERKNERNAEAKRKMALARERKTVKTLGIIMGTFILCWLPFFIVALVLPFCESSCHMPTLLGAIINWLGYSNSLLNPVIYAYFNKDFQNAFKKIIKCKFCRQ

5HT1e receptor = 5HT1e receptor (Homo sapiens (Human), UniProt P28566); test: Secondary radioligand binding assay, 5HT1e; parameters: key: “—” indicates that a binding interaction was not detected; settings: average of at least two experiments;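 note: competition binding against a radioligand on membranes from transfected cell lines, 1.5 h at room temperature, bound radioactivity counted by liquid scintillation after filtration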
Chain of 5HT1e receptor (P28566 whole entry): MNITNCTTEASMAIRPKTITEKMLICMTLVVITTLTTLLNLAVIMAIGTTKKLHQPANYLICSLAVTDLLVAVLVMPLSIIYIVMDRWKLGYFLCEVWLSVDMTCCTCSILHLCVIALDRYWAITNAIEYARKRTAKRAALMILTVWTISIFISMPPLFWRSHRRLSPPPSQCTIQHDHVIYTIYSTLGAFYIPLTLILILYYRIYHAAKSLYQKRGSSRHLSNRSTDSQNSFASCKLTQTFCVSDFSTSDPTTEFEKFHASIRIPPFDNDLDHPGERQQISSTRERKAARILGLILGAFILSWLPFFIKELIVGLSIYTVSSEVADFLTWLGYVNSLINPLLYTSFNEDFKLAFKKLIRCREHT
Protocol: as §8, §9

5HT3 receptor = 5HT3 receptor (Homo sapiens (Human), UniProt P46098); test: Secondary radioligand binding assay, 5HT3; parameters: key: “—” indicates that a binding interaction was not detected; settings: average of at least two experiments;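 note: radioligand competition binding on membranes from transfected cell lines, 1.5 h incubation at room temperature, filter-retained radioactivity measured by liquid scintillation counting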
Chain of 5HT3 receptor (P46098 24-478): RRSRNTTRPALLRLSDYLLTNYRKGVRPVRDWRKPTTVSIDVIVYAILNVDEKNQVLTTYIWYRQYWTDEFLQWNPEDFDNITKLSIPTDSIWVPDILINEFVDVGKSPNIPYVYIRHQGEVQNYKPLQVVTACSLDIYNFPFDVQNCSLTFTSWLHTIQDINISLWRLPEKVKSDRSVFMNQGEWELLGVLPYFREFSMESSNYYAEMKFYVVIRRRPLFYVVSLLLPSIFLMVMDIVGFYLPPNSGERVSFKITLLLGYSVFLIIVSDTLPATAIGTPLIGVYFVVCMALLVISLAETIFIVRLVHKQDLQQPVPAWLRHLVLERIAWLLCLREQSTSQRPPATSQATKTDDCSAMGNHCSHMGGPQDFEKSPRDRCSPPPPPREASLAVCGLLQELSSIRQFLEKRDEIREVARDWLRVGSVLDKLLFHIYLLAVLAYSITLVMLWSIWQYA

dopamine D1 receptor = dopamine D1 receptor (Homo sapiens (Human), UniProt P21728); test: Secondary radioligand binding assay, D1; parameters: key to Ki D1: “—” indicates that a binding interaction was not detected; settings: average of at least two experiments
Chain of dopamine D1 receptor (P21728 whole entry): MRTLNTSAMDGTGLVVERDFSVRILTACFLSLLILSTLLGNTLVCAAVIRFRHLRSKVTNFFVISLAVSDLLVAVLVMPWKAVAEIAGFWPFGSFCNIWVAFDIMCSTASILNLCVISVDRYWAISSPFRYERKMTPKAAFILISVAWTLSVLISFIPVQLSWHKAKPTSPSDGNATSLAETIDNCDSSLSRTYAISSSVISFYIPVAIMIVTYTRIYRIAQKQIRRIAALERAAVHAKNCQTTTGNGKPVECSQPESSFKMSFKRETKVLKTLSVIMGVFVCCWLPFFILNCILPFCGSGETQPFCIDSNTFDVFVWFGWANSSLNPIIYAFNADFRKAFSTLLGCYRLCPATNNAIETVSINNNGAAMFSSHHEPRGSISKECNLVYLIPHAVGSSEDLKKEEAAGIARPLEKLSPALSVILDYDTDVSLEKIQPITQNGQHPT
Protocol: as §1, §2, §3, §4, §5, §6, §7

dopamine D4 receptor = dopamine D4 receptor (Homo sapiens (Human), UniProt P21917); test: Secondary radioligand binding assay, D4
Chain of dopamine D4 receptor (P21917 whole entry, species assumed): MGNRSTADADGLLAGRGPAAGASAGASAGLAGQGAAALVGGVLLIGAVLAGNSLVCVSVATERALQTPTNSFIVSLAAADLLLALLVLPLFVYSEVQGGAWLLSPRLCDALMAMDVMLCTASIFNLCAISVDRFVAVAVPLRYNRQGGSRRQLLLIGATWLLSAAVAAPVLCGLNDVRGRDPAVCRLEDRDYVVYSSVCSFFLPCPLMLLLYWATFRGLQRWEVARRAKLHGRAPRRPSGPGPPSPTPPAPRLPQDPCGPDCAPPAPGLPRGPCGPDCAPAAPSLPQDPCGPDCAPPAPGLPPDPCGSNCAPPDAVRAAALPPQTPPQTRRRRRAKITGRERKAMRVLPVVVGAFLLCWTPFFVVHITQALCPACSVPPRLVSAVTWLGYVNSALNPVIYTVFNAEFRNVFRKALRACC
Protocol: as §1, §2, §3, §4, §5, §6, §7

[2] = read-out: Ki dopamine D4 (relatively high affinity)
[3] = receptor binding, average of at least two experiments, read-out: Ki D4

Compound	Ki 5HT7 (5HT7 receptor)	Ki (5HT2a receptor) [µM]	Ki 5HT6 (5HT6 receptor)	Ki D5 (dopamine D5 receptor)	Ki Alpha1B [1]	Ki (5HT2b receptor) [µM]	Ki 5HT1d (5HT1d receptor)	Ki (5HT1a receptor) [µM]	Ki 5HT1e (5HT1e receptor)	Ki 5HT3 (5HT3 receptor)	Ki D1 (dopamine D1 receptor)	Ki 5HT2b (5HT2b receptor)	Ki (dopamine D4 receptor; [2]) [µM]	Ki (dopamine D4 receptor; [3])
CC1Cc2ccccc2N1C(=O)CN1CCO[C@@H](COc2cccc(Cl)c2)C1 (stereo partly shown) [Compound 65]	—	1.81	—	—	—	0.333	—	> 10	—	—	—			
Cc1ncccc1OC[C@@H]1CN(CCN2CCc3ccccc32)CCO1 [Compound 26s, (S)-4-(2-(Indolin-1-yl)ethyl)-2-(((2-methylpyridin-3-yl)oxy)methyl)morpholine]	—		—	—	—		—		—	—	—	—	< 1	< 1 µM and 0.435 µM
O=C(CN1CCO[C@H](COc2ccccc2)C1)N1CCc2ccccc21 [Compound 18s, (S)-1-(Indolin-1-yl)-2-(2-(phenoxymethyl)morpholino)ethanone]	—		—	—	—	6.42	—		—	—	—			5.53 µM
Cc1ccc(OC[C@H]2CN(CCN3CCc4ccccc43)CCO2)cn1 [Compound 28r, (R)-4-(2-(Indolin-1-yl)ethyl)-2-(((6-methylpyridin-3-yl)oxy)methyl)morpholine]	—	1.48	—	—	—		—		—	—	—	—		
COc1cccc(OC[C@@H]2CN(CC(=O)N3CCc4ccccc43)CCO2)c1 [Compound 24s, (S)-1-(Indolin-1-yl)-2-(2-((3-methoxyphenoxy)methyl)morpholino)ethanone]	—	1.94	—	—	—	1.65	—	0.371	—	—	—			
Cc1ccc(OC[C@@H]2CN(CCN3CCc4ccccc43)CCO2)cn1 [Compound 28s, (S)-4-(2-(Indolin-1-yl)ethyl)-2-(((6-methylpyridin-3-yl)oxy)methyl)morpholine]	—		—	—	—		—		—	—	—	—	< 1	< 1 µM
Clc1cccc(OC[C@H]2CN(CCN3CCc4ccccc43)CCO2)c1 [Compound 23r, (R)-2-((3-Chlorophenoxy)methyl)-4-(2-(indolin-1-yl)ethyl)morpholine]	—	2.67	—	—	—		—		—	—	—			
O=C(CN1CCO[C@@H](COc2cccnc2)C1)N1CCc2ccccc21 [Compound 20r, (R)-1-(Indolin-1-yl)-2-(2-((pyridin-3-yloxy)methyl)morpholino)ethanone]	—	2.66	—	—	—	8.81	—		—	—	—			
CC1Cc2ccccc2N1C(=O)CN1CCO[C@@H](COc2ccccn2)C1 (stereo partly shown) [Compound 69]	—		—	—	—		—	> 10	—	—	—	—		
CC1Cc2ccccc2N1C(=O)CN1CCO[C@@H](COc2ccncc2)C1 (stereo partly shown) [Compound 68]	—		—	—	—		—	> 10	—	—	—	—		
